Read-outs that look alike come from different tables or passages of the source.
Key:
[1] = tested on: hypercholesterolemic hamster; test: Hypocholesterolemic activity in hamsters fed a 0.5%-cholesterol diet; type: in vivo; details: Mesocricetus auratus, po, negative = hypocholesterolemic action, read-out: Serum cholesterol (%); for change in vivo at 3 mg/kg: 3 mg/kg orally daily; for change in vivo at 20 mg/kg: 20 mg/kg orally daily; for change in vivo at 10 mg/kg: 10 mg/kg orally daily; for change in vivo at 0.3 mg/kg: 0.3 mg/kg orally daily
Description: [Hypocholesterolemic Agents Using the Hypercholesterolemic Hamster]
Hamsters were derived into groups with 3 animals per group and fed a 0.5%-cholesterol containing CE-2 diet (CLEA Japan Inc.) for 4 or 7 days. The normal dietary group were fed a standard CE-2 during the experiment. Each compound or vehicle (0.2 mL of corn oil) per 100 g body weight was orally administered daily for 4 or 7 days from the day that high-cholesterol diet was started. At 20 hr after the final administration, blood samples were collected from the abdominal aorta of non-fasted animals under anesthesia with diethylether. Serum cholesterol was measured by enzymatic method using cholesterol E-test wako (Wako Pure Chemical Industries). Activity of the test compounds is expressed as percent reduction of the test compound on the basis of comparison with rised total cholesterol treated only with no-treatment-high-cholesterol diet. The test compounds with the optical rotation value in the compounds 1–58 were evaluated as the chiral compounds.

[2] = 168 h, dosage day 7, changed percent vs rise in total cholesterol on high-cholesterol diet
[3] = 96 h, dosage day 4, changed percent

melting point	Structure (SMILES)	other results
110 to 112 °C	O=C1[C@H](CCCc2ccc(F)cc2)[C@@H](c2ccc(C[C@@H]3O[C@H](CO)[C@@H](O)[C@H](O)[C@H]3O)cc2)N1c1ccc(F)cc1 (relative stereo) [Compound 2, (4S*,3R*)-4-(4-{[(2S,5S,3R,4R,6R)-3,4,5-Trihydroxy-6-(hydroxymethyl)perhydro-2H-pyran-2-yl]methyl}phenyl)-1-(4-fluorophenyl)-3-[3-(4-fluorophenyl)propyl]azetidine-2-one]	change in vivo at 3 mg/kg [1, 2]: -120%
64 to 65 °C	O=C1[C@H](CCOc2ccc(F)cc2)[C@@H](c2ccc(OCC3O[C@H](CO)[C@@H](O)[C@H](O)[C@H]3O)cc2)N1c1ccc(F)cc1 (relative stereo) [Compound 15, (4S*,3R*)-4-(4-{[(4S,5S,2R,3R,6R)-3,4,5-Trihydroxy-6-(hydroxymethyl)perhydro-2H-pyran-2-yl]methoxy}phenyl)-1-(4-fluorophenyl)-3-[2-(4-fluorophenoxy)ethyl]azetidine-2-one]	change in vivo at 20 mg/kg [1, 3]: -21%
111 to 113 °C	O=C1[C@H](CC[C@H](O)c2ccc(C3OC(CO)C(O)C(O)C3O)cc2)C(c2ccc(F)cc2)N1c1ccc(F)cc1 (stereo in doubt) [Compound 49, 3-((3S)-(4-[(2S,5S,3R,4R,6R)-3,4,5-Trihydroxy-6-(hydroxymethyl)perhydro-2H-pyran-2-yl]phenyl}-3-hydroxypropyl)(4S,3R)-1,4-bis(4-fluorophenyl)azetidine-2-one]	change in vivo at 10 mg/kg [1, 3]: -55%
104 to 106 °C	O=C1[C@H](CC[C@H](O)c2ccc(F)cc2)[C@@H](c2ccc(C[C@@H]3O[C@H](CO)[C@@H](O)[C@H](O)[C@H]3O)cc2)N1c1ccccc1 [Compound 23, (4S,3R)-3-[(3S)-3-(4-Fluorophenyl)-3-hydroxypropyl]-4-(4-{[(2S,5S,3R,4R,6R)-3,4,5-trihydroxy-6-(hydroxymethyl)perhydro-2H-pyran-2-yl]methyl}phenyl)-1-phenylazetidine-2-one]	change in vivo at 3 mg/kg [1, 2]: -177%
102 to 104 °C	Cc1ccc(N2C(=O)[C@H](CC[C@H](O)c3ccc(F)cc3)[C@H]2c2ccc(C[C@@H]3O[C@H](CO)[C@@H](O)[C@H](O)[C@H]3O)cc2)cc1 [Compound 24, (4S,3R)-3-[(3S)-3-(4-Fluorophenyl)-3-hydroxypropyl]-4-(4-{[(2S,5S,3R,4R,6R)-3,4,5-trihydroxy-6-(hydroxymethyl)perhydro-2H-pyran-2-yl]methyl}phenyl)-1-(4-methylphenyl)azetidine-2-one]	change in vivo at 3 mg/kg [1, 2]: -156%
86 to 88 °C	Cc1ccc(N2C(=O)[C@H](CCC(=O)c3ccc(F)cc3)[C@H]2c2ccc(C[C@@H]3O[C@H](CO)[C@@H](O)[C@H](O)[C@H]3O)cc2)cc1 [Compound 28, (4S,3R)-4-(4-{[(2S,5S,3R,4R,6R)-3,4,5-Trihydroxy-6-(hydroxymethyl)perhydro-2H-pyran-2-yl]methyl}phenyl)-1-(4-methylphenyl)-3-[3-(4-fluorophenyl)-3-oxopropyl]azetidine-2-one]	change in vivo at 3 mg/kg [1, 2]: -130%
82 to 84 °C	O=C(O)[C@H]1O[C@@H](Cc2ccc([C@@H]3[C@@H](CC[C@H](O)c4ccc(F)cc4)C(=O)N3c3ccc(F)cc3)cc2)[C@H](O)[C@@H](O)[C@@H]1O [Compound 33]	change in vivo at 3 mg/kg [1, 3]: -67%
200 to 201 °C	O=C1[C@H](CC[C@H](O)c2ccc(F)cc2)[C@@H](c2ccc(F)cc2)N1c1ccc(C[C@@H]2O[C@H](CO)[C@@H](O)[C@H](O)[C@H]2O)cc1 [Compound 38, (4S,3R)-3-[(3S)-3-(4-Fluorophenyl)-3-hydroxypropyl]-1-(4-{[(2S,5S,3R,4R,6R)-3,4,5-trihydroxy-6-(hydroxymethyl)perhydro-2H-pyran-2-yl]methyl}phenyl)-1-(4-fluorophenyl)azetidine-2-one]	change in vivo at 10 mg/kg [1, 3]: -2%
84 to 86 °C	O=C1[C@H](CC[C@H](O)c2ccc(F)cc2)[C@@H](c2ccc(/C=C/[C@@H]3O[C@H](CO)[C@@H](O)[C@H](O)[C@H]3O)cc2)N1c1ccc(F)cc1 [Compound 45, (4S,3R)-3-[(3S)-3-(4-Fluorophenyl)-3-hydroxypropyl]4-(4-{[(2S,5S,3R,4R,6R)-3,4,5-trihydroxy-6-(hydroxymethyl)perhydro-2H-pyran-2-yl]ethene}phenyl)-1-(4-fluorophenyl)azetidine-2-one]	change in vivo at 3 mg/kg [1, 3]: -136%
153 to 155 °C	O=C1[C@H](CC[C@H](O)c2ccc(F)cc2)[C@@H](c2ccc(CC[C@@H]3O[C@H](CO)[C@@H](O)[C@H](O)[C@H]3O)cc2)N1c1ccc(F)cc1 [Compound 46, (4S,3R)-3-[(3S)-3-(4-Fluorophenyl)-3-hydroxypropyl]4-(4-([(2S,5S,3R,4R,6R)-3,4,5-trihydroxy-6-(hydroxymethyl)perhydro-2H-pyran-2-yl]ethyl}phenyl)-1-(4-fluorophenyl)azetidine-2-one]	change in vivo at 3 mg/kg [1, 3]: -147%
72 to 74 °C	O=C1[C@H](CC[C@H](O)c2ccc(F)cc2)[C@@H](c2ccc(/C=C/C[C@@H]3O[C@H](CO)[C@@H](O)[C@H](O)[C@H]3O)cc2)N1c1ccc(F)cc1 [Compound 47]	–
81 to 83 °C	O=C1[C@H](CC[C@H](O)c2ccc(F)cc2)[C@@H](c2ccc(CCC[C@@H]3O[C@H](CO)[C@@H](O)[C@H](O)[C@H]3O)cc2)N1c1ccc(F)cc1 [Compound 48]	–
61 to 63 °C	O=C1[C@H](CC[C@H](O)c2ccc(F)cc2)[C@@H](c2ccc(CCCOC[C@@H]3O[C@H](CO)[C@@H](O)[C@H](O)[C@H]3O)cc2)N1c1ccc(F)cc1 [Compound 50]	–
65 to 67 °C	O=C1[C@H](CC[C@H](O)c2ccc(F)cc2)[C@@H](c2ccc(/C=C/COC[C@@H]3O[C@H](CO)[C@@H](O)[C@H](O)[C@H]3O)cc2)N1c1ccc(F)cc1 [Compound 51]	–
79 to 81 °C	O=C1[C@H](CC[C@H](O)c2ccc(F)cc2)[C@@H](c2ccc(/C=C/CC[C@@H]3O[C@H](CO)[C@@H](O)[C@H](O)[C@H]3O)cc2)N1c1ccc(F)cc1 [Compound 52]	–
81 to 83 °C	O=C1[C@H](CC[C@H](O)c2ccc(F)cc2)[C@@H](c2ccc(CCCC[C@@H]3O[C@H](CO)[C@@H](O)[C@H](O)[C@H]3O)cc2)N1c1ccc(F)cc1 [Compound 53]	–
69 to 71 °C	O=C1[C@H](CC[C@H](O)c2ccc(F)cc2)[C@@H](c2ccc(/C=C/CCC[C@@H]3O[C@H](CO)[C@@H](O)[C@H](O)[C@H]3O)cc2)N1c1ccc(F)cc1 [Compound 54]	–
66 to 68 °C	O=C1[C@H](CC[C@H](O)c2ccc(F)cc2)[C@@H](c2ccc(CCCCC[C@@H]3O[C@H](CO)[C@@H](O)[C@H](O)[C@H]3O)cc2)N1c1ccc(F)cc1 [Compound 55]	–
82 to 84 °C	O=C1[C@H](CC[C@H](O)c2ccc(F)cc2)[C@@H](c2ccc(CC[C@@H]3O[C@H](CO)[C@@H](O)[C@H](O)[C@H]3O)cc2)N1c1ccccc1 [Compound 56]	change in vivo at 0.3 mg/kg [1, 3]: -84%
116 to 118 °C	Cc1ccc(N2C(=O)[C@H](CC[C@H](O)c3ccc(F)cc3)[C@H]2c2ccc(CC[C@@H]3O[C@H](CO)[C@@H](O)[C@H](O)[C@H]3O)cc2)cc1 [Compound 57]	change in vivo at 0.3 mg/kg [1, 3]: -81.3%
110 to 112 °C	O=C(O)[C@H]1O[C@@H](CCc2ccc([C@@H]3[C@@H](CC[C@H](O)c4ccc(F)cc4)C(=O)N3c3ccccc3)cc2)[C@H](O)[C@@H](O)[C@@H]1O [Compound 58]	–

Structure (SMILES)	melting point	other results
CC(=O)OC[C@H]1O[C@@H](Cc2ccc([C@@H]3[C@@H](CCOc4ccc(F)cc4)C(=O)N3c3ccc(F)cc3)cc2)[C@H](OC(C)=O)[C@@H](OC(C)=O)[C@@H]1OC(C)=O (relative stereo) [Compound 13, (3S,2R,4R,5R,6R)-2-[(4-{(4S*,3R*)-1-(4-Fluorophenyl)-3-[2-(4-fluorophenoxy)ethyl]-2-oxoazetidine-4-yl}phenyl)methyl]-4,5-diacetyloxy-6-(acetoxymethyl)perhydro-2H-pyran-3-ylacetate]	64 to 66 °C	change in vivo at 20 mg/kg [1, 3]: -28%
